From paper PMC7756666, “Non‐Stationary Complementary Non‐Uniform Sampling (NOSCO NUS) for Fast Acquisition of Serial 2D NMR Titration Data” (Angewandte Chemie (International Ed. in English), 2020) come the findings set out here.

This assay concerns the target T1, SH3 domain of α‐spectrin (Gallus gallus, UniProt P07751).
T1 construct: SH3 domain of α‐spectrin, has 60 residues
In words: NMR titration (2D 1H-15N HSQC), p41 binding by SH3. The settings on record: system as introduced in text; pH 3.5; 8 ligand-to-protein ratios; no spread given; read-out: KD (dissociation constant). The source says:
The critical information on molecular dissociation constants, K D, and chemical shift perturbation (CSP) amplitudes, Δv, can be derived by individually fitting the correlated signal frequencies, observed in the 2D protein NMR spectra of a titration series, to the equation [Eq. 1]:(1) νI=νI,0+f(x,KD)·ΔνI
where [Eq. 2](2) f(x,KD)=KD+(1+x)cP-(KD+(1+x)cP)^2-4cP2x/2cP
v I is the observed chemical shift (I=^15N or^1H ), v I,0 is the pertaining reference chemical shift in the absence of ligand; Δv I is the maximal CSP amplitude due to ligand binding; x=c L/ c P is the ligand to protein molar ratio; c P is the total protein concentration.
NMR frequency sampling in an indirect time dimension is a lengthy process (fundamental reasons described in SI). Here we propose a method for complementary non‐uniform sampling (NUS) of entire titration series of 2D ^1H‐^15N HSQC spectra within less time even than required for a single conventional spectrum. For this we sample the indirect t 1(^15N) dimension as in a standard NUS experiment, yet with complementary sampling schedules for the different titration points such that each ligand‐to‐protein ratio, x, is sampled for a unique set of t 1 times (Figure 1). A full grid of 256 t 1 increments in a titration series with 8 different x ratios would, thus, be sampled in 8 complementary schedules of 32 points. […]

Ends that are not written are not given here.

T1 sequence (P07751 967-1026 limits assumed): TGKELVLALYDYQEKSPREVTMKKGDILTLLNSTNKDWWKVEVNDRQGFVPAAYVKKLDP

As usually defined, the Kd is the equilibrium constant for the complex coming apart. For APSYSPPPPP [p41], the Kd was 9 mM.
